Results as given in US20100298141A1, “SUBSTITUTED PYRIDINE N-OXIDE HERBICIDES” (E. I. DU PONT DE NEMOURS AND COMPANY, priority 2007, published 2010).

Tests used:
[1] = test system: windgrass; assay: Test C pre-/postemergence test; assay type: in vivo, Apera spica-venti; conditions: Postemergence; for Plant response rating, Windgrass: scale 0 to 100, 0 no effect, 100 complete control
Excerpt: Seeds of plant species selected from blackgrass (Alopecurus myosuroides), downy brome (Bromus tectorum), green foxtail (Setaria viridis), Italian ryegrass (Lolium multiflorum), wheat (Triticum aestivum), wild oat (Avena fatua), catchweed bedstraw (Galium aparine), Russian thistle (Salsola kali), […] (Cynodon dactylon), Surinam grass (Brachiaria decumbens), cocklebur (Xanthium strumarium), corn (Zea mays), crabgrass (Digitaria sanguinalis), woolly cupgrass (Eriochloa villosa), giant foxtail (Setaria faberii), Goosegrass (Eleusin indica), johnsongrass (Sorghum halepense), kochia (Kochia scoparia), lambsquarters (Chenopodium album), morningglory (Ipomoea coccinea), eastern black nightshade (Solanum ptycanthum), yellow nutsedge (Cyperus esculentus), pigweed (Amaranthus retroflexus), common ragweed (Ambrosia elation), soybean (Glycine max), common (oilseed) sunflower (Helianthus annuus), and velvetleaf (Abutilon theophrasti) were planted and treated preemergence with test chemicals formulated in a non-phytotoxic solvent mixture which included a surfactant. At the same time, plants selected from these crop and weed species and also winter barley (Hordeum vulgare), canarygrass (Phalaris minor), and chickweed (Stellaria media) were treated with postemergence applications of some of the test chemicals formulated in the same manner. Plants ranged in height from 2 to 18 cm (1- to 4-leaf stage) for postemergence treatments. […] At time of treatment, test pots were flooded to 3 cm above the soil surface, treated by application of test compounds directly to the paddy water, and then maintained at that water depth for the duration of the test. […] A dash (-) response means no test result.

[2] = test system: green foxtail; assay: Test F preemergence test; assay type: in vivo, Setaria viridis; conditions: scale 0 to 100; for Foxtail, Green plant response rating: 62 g ai/ha
Outline: (§1)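 Compounds in a non-phytotoxic solvent formulation with surfactant were applied before emergence after sowing, or, for sugarcane, also postemergence. Evaluation was visual, against controls, after 14 to 21 greenhouse days.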

[3] = test system: mustard; assay: Test F preemergence test; assay type: in vivo, Brassica nigra; conditions: scale 0 to 100; for Black Mustard plant response rating: 62 g ai/ha
Outline: as §1

[4] = test system: guineagrass; assay: Test F preemergence test; assay type: in vivo, Panicum maximum; conditions: scale 0 to 100; for Guineagrass plant response rating: 62 g ai/ha
Outline: as §1

[5] = test system: dallisgrass; assay: Test F preemergence test; assay type: in vivo, Paspalum dilatatum; conditions: scale 0 to 100; for Dallisgrass plant response rating: 62 g ai/ha
Outline: as §1

[6] = test system: barnyardgrass; assay: Test F preemergence test; assay type: in vivo, Echinochloa crus-galli; conditions: scale 0 to 100; for Barnyardgrass plant response rating: 62 g ai/ha
Outline: as §1

[7] = test system: southern sandbur; assay: Test F preemergence test; assay type: in vivo, Cenchrus echinatus; conditions: scale 0 to 100; for Sandbur plant response rating: 62 g ai/ha
Outline: as §1

[8] = test system: prickly sida; assay: Test F preemergence test; assay type: in vivo, Sida spinosa; conditions: scale 0 to 100; for Prickly Sida plant response rating: 62 g ai/ha
Outline: as §1

[9] = test system: common purslane; assay: Test F preemergence test; assay type: in vivo, Portulaca oleracea; conditions: scale 0 to 100; for Purslane plant response rating: 62 g ai/ha
Outline: as §1

[10] = test system: common groundsel; assay: Test F preemergence test; assay type: in vivo, Senecio vulgaris; conditions: scale 0 to 100; for Groundsel plant response rating: 62 g ai/ha
Outline: as §1

[11] = test system: itchgrass; assay: Test F preemergence test; assay type: in vivo, Rottboellia cochinchinensis; conditions: scale 0 to 100; for Itchgrass plant response rating: 62 g ai/ha
Outline: as §1

[12] = test system: quackgrass; assay: Test F preemergence test; assay type: in vivo, Elytrigia repens; conditions: scale 0 to 100; for Quackgrass plant response rating: 62 g ai/ha
Outline: as §1

[13] = test system: field bindweed; assay: Test F preemergence test; assay type: in vivo, Convolvulus arvensis; conditions: scale 0 to 100; for Field Bindweed plant response rating: 62 g ai/ha
Outline: as §1

[14] = test system: common mallow; assay: Test F preemergence test; assay type: in vivo, Malva sylvestris; conditions: scale 0 to 100; for Mallow plant response rating: 62 g ai/ha
Outline: as §1

In the case of `Cc1cc[n+]([O-])c([S+]([O-])Cc2c(C(F)(F)F)nn(C)c2OC(F)F)c1` (stereo not shown) [Compound 1], the “Plant response rating (0 to 100), Windgrass” value ([1]; 31 g ai/ha) is reported as 0, the “Plant response rating (0 to 100), Windgrass” value ([1]; 62 g ai/ha) is reported as 10 and the “Plant response rating, Windgrass” value ([1]; 125 g ai/ha) is reported as 60. For the same compound, the “Plant response rating, Windgrass” value ([1]; 250 g ai/ha) was 85, the “Plant response rating, Foxtail, Green” value ([2]; 8 g ai/ha, preemergence) was 0 and the “Foxtail, Green plant response rating” value ([2]; Preemergence) was 100. The “Plant response rating, Foxtail, Green” value ([2]; Preemergence, 16 g ai/ha) was 60, the “Plant response rating, Foxtail, Green” value ([2]; Preemergence, 31 g ai/ha) was 80 and the “Plant response rating, Black Mustard” value ([3]; 8 g ai/ha, preemergence) was 0. The “Black Mustard plant response rating” value ([3]; Preemergence) was 100, the “Plant response rating, Black Mustard” value ([3]; Preemergence, 16 g ai/ha) was 0 and the “Plant response rating, Black Mustard” value ([3]; Preemergence, 31 g ai/ha) was 80. The “Plant response rating, Guineagrass” value ([4]; 8 g ai/ha, preemergence) was 65, the “Guineagrass plant response rating” value ([4]; Preemergence) was 100 and the “Plant response rating, Guineagrass” value ([4]; Preemergence, 16 g ai/ha) was 80. The “Plant response rating, Guineagrass” value ([4]; Preemergence, 31 g ai/ha) was 80, the “Plant response rating, Dallisgrass” value ([5]; 8 g ai/ha, preemergence) was 0 and the “Dallisgrass plant response rating” value ([5]; Preemergence) was 50. The “Plant response rating, Dallisgrass” value ([5]; Preemergence, 16 g ai/ha) was 0, the “Plant response rating, Dallisgrass” value ([5]; Preemergence, 31 g ai/ha) was 20 and the “Plant response rating, Barnyardgrass” value ([6]; 8 g ai/ha, preemergence) was 5. For the same compound, the “Barnyardgrass plant response rating” value ([6]; Preemergence) was 90, the “Plant response rating, Barnyardgrass” value ([6]; Preemergence, 16 g ai/ha) was 60 and the “Plant response rating, Barnyardgrass” value ([6]; Preemergence, 31 g ai/ha) was 80. For the same compound, the “Plant response rating, Sandbur” value ([7]; 8 g ai/ha, preemergence) was 0, the “Plant response rating, Sandbur” value ([7]; 16 g ai/ha, preemergence) was 30 and the “Sandbur plant response rating” value ([7]; Preemergence) was 80. The “Plant response rating, Sandbur” value ([7]; Preemergence, 31 g ai/ha) was 60, the “Plant response rating, Prickly Sida” value ([8]; 8 g ai/ha, preemergence) was 0 and the “Prickly Sida plant response rating” value ([8]; Preemergence) was 80. For the same compound, the “Plant response rating, Prickly Sida” value ([8]; Preemergence, 16 g ai/ha) was 20, the “Plant response rating, Prickly Sida” value ([8]; Preemergence, 31 g ai/ha) was 60 and the “Plant response rating, Purslane” value ([9]; 8 g ai/ha, preemergence) was 0. For the same compound, the “Purslane plant response rating” value ([9]; Preemergence) was 80, the “Plant response rating, Purslane” value ([9]; Preemergence, 16 g ai/ha) was 35 and the “Plant response rating, Purslane” value ([9]; Preemergence, 31 g ai/ha) was 60. For the same compound, the “Plant response rating, Groundsel” value ([10]; 8 g ai/ha, preemergence) was 0, the “Groundsel plant response rating” value ([10]; Preemergence) was 35 and the “Plant response rating, Groundsel” value ([10]; Preemergence, 16 g ai/ha) was 20. For the same compound, the “Plant response rating, Groundsel” value ([10]; Preemergence, 31 g ai/ha) was 35, the “Plant response rating, Itchgrass” value ([11]; 8 g ai/ha, preemergence) was 0 and the “Itchgrass plant response rating” value ([11]; Preemergence) was 90. The “Plant response rating, Itchgrass” value ([11]; Preemergence, 16 g ai/ha) was 60, the “Plant response rating, Itchgrass” value ([11]; Preemergence, 31 g ai/ha) was 70 and the “Plant response rating, Quackgrass” value ([12]; 8 g ai/ha, preemergence) was 0. The “Quackgrass plant response rating” value ([12]; Preemergence) was 65, the “Plant response rating, Quackgrass” value ([12]; Preemergence, 16 g ai/ha) was 35 and the “Plant response rating, Quackgrass” value ([12]; Preemergence, 31 g ai/ha) was 50. The “Plant response rating, Field Bindweed” value ([13]; 8 g ai/ha, preemergence) was 0, the “Field Bindweed plant response rating” value ([13]; Preemergence) was 75 and the “Plant response rating, Field Bindweed” value ([13]; Preemergence, 16 g ai/ha) was 0. For the same compound, the “Plant response rating, Field Bindweed” value ([13]; Preemergence, 31 g ai/ha) was 50, the “Plant response rating, Mallow” value ([14]; 8 g ai/ha, preemergence) was 0 and the “Mallow plant response rating” value ([14]; Preemergence) was 100. For the same compound, the “Plant response rating, Mallow” value ([14]; Preemergence, 16 g ai/ha) was 0 and the “Plant response rating, Mallow” value ([14]; Preemergence, 31 g ai/ha) was 70.

With `Cn1nc(C(F)(F)F)c(C[S+]([O-])c2ccc(Cl)c[n+]2[O-])c1OC(F)F` (stereo not shown) [Compound 6] the “Plant response rating (0 to 100), Windgrass” value ([1]; 31 g ai/ha) was 50, the “Plant response rating (0 to 100), Windgrass” value ([1]; 62 g ai/ha) was 98 and the “Plant response rating, Windgrass” value ([1]; 125 g ai/ha) was 100. For the same compound, the “Plant response rating, Windgrass” value ([1]; 250 g ai/ha) was 100, the “Plant response rating, Foxtail, Green” value ([2]; 8 g ai/ha, preemergence) was 0 and the “Foxtail, Green plant response rating” value ([2]; Preemergence) was 85. The “Plant response rating, Foxtail, Green” value ([2]; Preemergence, 16 g ai/ha) was 65, the “Plant response rating, Foxtail, Green” value ([2]; Preemergence, 31 g ai/ha) was 80 and the “Plant response rating, Black Mustard” value ([3]; 8 g ai/ha, preemergence) was 0. The “Black Mustard plant response rating” value ([3]; Preemergence) was 100, the “Plant response rating, Black Mustard” value ([3]; Preemergence, 16 g ai/ha) was 0 and the “Plant response rating, Black Mustard” value ([3]; Preemergence, 31 g ai/ha) was 100. For the same compound, the “Plant response rating, Guineagrass” value ([4]; 8 g ai/ha, preemergence) was 100, the “Guineagrass plant response rating” value ([4]; Preemergence) was 100 and the “Plant response rating, Guineagrass” value ([4]; Preemergence, 16 g ai/ha) was 100. For the same compound, the “Plant response rating, Guineagrass” value ([4]; Preemergence, 31 g ai/ha) was 100, the “Plant response rating, Dallisgrass” value ([5]; 8 g ai/ha, preemergence) was 0 and the “Dallisgrass plant response rating” value ([5]; Preemergence) was 70. For the same compound, the “Plant response rating, Dallisgrass” value ([5]; Preemergence, 16 g ai/ha) was 20, the “Plant response rating, Dallisgrass” value ([5]; Preemergence, 31 g ai/ha) was 50 and the “Plant response rating, Barnyardgrass” value ([6]; 8 g ai/ha, preemergence) was 0. The “Barnyardgrass plant response rating” value ([6]; Preemergence) was 90, the “Plant response rating, Barnyardgrass” value ([6]; Preemergence, 16 g ai/ha) was 70 and the “Plant response rating, Barnyardgrass” value ([6]; Preemergence, 31 g ai/ha) was 80. The “Plant response rating, Sandbur” value ([7]; 8 g ai/ha, preemergence) was 0, the “Plant response rating, Sandbur” value ([7]; 16 g ai/ha, preemergence) was 75 and the “Sandbur plant response rating” value ([7]; Preemergence) was 100. The “Plant response rating, Sandbur” value ([7]; Preemergence, 31 g ai/ha) was 100, the “Plant response rating, Prickly Sida” value ([8]; 8 g ai/ha, preemergence) was 0 and the “Prickly Sida plant response rating” value ([8]; Preemergence) was 100. For the same compound, the “Plant response rating, Prickly Sida” value ([8]; Preemergence, 16 g ai/ha) was 0, the “Plant response rating, Prickly Sida” value ([8]; Preemergence, 31 g ai/ha) was 80 and the “Plant response rating, Purslane” value ([9]; 8 g ai/ha, preemergence) was 10. The “Purslane plant response rating” value ([9]; Preemergence) was 70, the “Plant response rating, Purslane” value ([9]; Preemergence, 16 g ai/ha) was 20 and the “Plant response rating, Purslane” value ([9]; Preemergence, 31 g ai/ha) was 50. The “Plant response rating, Groundsel” value ([10]; 8 g ai/ha, preemergence) was 0, the “Groundsel plant response rating” value ([10]; Preemergence) was 75 and the “Plant response rating, Groundsel” value ([10]; Preemergence, 16 g ai/ha) was 50. For the same compound, the “Plant response rating, Groundsel” value ([10]; Preemergence, 31 g ai/ha) was 75, the “Plant response rating, Itchgrass” value ([11]; 8 g ai/ha, preemergence) was 0 and the “Itchgrass plant response rating” value ([11]; Preemergence) was 95. For the same compound, the “Plant response rating, Itchgrass” value ([11]; Preemergence, 16 g ai/ha) was 60, the “Plant response rating, Itchgrass” value ([11]; Preemergence, 31 g ai/ha) was 75 and the “Plant response rating, Quackgrass” value ([12]; 8 g ai/ha, preemergence) was 0. For the same compound, the “Quackgrass plant response rating” value ([12]; Preemergence) was 75, the “Plant response rating, Quackgrass” value ([12]; Preemergence, 16 g ai/ha) was 60 and the “Plant response rating, Quackgrass” value ([12]; Preemergence, 31 g ai/ha) was 65. The “Plant response rating, Field Bindweed” value ([13]; 8 g ai/ha, preemergence) was 0, the “Field Bindweed plant response rating” value ([13]; Preemergence) was 50 and the “Plant response rating, Field Bindweed” value ([13]; Preemergence, 16 g ai/ha) was 50. For the same compound, the “Plant response rating, Field Bindweed” value ([13]; Preemergence, 31 g ai/ha) was 50, the “Plant response rating, Mallow” value ([14]; 8 g ai/ha, preemergence) was 0 and the “Mallow plant response rating” value ([14]; Preemergence) was 90. The “Plant response rating, Mallow” value ([14]; Preemergence, 16 g ai/ha) was 0 and the “Plant response rating, Mallow” value ([14]; Preemergence, 31 g ai/ha) was 30.
